Experiments:
Assay in all cases: biochemical
[1] = molecular target: T1, panel of 374 wild-type kinases (Homo sapiens, UniProt Q12866); conditions: read-out: % Enzyme Activity (relative to DMSO controls), c-MER
T1 construct: purchased Reaction Biology Corporation
T1 sequence (Q12866 21-999): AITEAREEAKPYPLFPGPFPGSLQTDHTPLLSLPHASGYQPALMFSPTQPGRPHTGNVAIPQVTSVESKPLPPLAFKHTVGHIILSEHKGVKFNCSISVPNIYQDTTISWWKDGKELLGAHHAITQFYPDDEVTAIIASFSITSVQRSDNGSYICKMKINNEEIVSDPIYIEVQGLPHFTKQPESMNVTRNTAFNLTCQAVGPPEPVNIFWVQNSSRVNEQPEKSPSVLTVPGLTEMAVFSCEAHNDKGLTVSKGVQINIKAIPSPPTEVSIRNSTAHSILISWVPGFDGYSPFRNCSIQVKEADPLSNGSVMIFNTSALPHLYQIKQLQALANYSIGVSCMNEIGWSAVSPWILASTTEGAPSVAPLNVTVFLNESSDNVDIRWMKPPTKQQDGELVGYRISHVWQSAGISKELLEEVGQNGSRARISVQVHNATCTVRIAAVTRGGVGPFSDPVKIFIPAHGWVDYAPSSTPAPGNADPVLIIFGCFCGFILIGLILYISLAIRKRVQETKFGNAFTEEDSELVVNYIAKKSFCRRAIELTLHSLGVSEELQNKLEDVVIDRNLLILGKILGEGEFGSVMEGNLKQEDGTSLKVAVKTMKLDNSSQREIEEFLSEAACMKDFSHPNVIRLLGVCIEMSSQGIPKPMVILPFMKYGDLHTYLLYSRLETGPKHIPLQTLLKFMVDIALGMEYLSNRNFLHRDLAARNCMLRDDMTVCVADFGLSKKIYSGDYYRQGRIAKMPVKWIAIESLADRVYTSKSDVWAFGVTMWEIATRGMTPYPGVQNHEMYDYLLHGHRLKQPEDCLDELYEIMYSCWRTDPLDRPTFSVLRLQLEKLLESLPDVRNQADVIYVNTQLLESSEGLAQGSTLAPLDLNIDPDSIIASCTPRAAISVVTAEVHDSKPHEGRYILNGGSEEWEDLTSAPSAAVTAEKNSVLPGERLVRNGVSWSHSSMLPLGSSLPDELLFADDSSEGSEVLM

[2] = molecular target: T2, panel of 374 wild-type kinases (Homo sapiens, UniProt Q9HCP0); conditions: read-out: % Enzyme Activity (relative to DMSO controls), CK1g1
T2 construct: purchased Reaction Biology Corporation

[3] = molecular target: T3, panel of 374 wild-type kinases (Homo sapiens, UniProt Q96GX5); conditions: MASTL, read-out: % Enzyme Activity (relative to DMSO controls)
T3 construct: purchased Reaction Biology Corporation
T3 sequence (Q96GX5 1-879): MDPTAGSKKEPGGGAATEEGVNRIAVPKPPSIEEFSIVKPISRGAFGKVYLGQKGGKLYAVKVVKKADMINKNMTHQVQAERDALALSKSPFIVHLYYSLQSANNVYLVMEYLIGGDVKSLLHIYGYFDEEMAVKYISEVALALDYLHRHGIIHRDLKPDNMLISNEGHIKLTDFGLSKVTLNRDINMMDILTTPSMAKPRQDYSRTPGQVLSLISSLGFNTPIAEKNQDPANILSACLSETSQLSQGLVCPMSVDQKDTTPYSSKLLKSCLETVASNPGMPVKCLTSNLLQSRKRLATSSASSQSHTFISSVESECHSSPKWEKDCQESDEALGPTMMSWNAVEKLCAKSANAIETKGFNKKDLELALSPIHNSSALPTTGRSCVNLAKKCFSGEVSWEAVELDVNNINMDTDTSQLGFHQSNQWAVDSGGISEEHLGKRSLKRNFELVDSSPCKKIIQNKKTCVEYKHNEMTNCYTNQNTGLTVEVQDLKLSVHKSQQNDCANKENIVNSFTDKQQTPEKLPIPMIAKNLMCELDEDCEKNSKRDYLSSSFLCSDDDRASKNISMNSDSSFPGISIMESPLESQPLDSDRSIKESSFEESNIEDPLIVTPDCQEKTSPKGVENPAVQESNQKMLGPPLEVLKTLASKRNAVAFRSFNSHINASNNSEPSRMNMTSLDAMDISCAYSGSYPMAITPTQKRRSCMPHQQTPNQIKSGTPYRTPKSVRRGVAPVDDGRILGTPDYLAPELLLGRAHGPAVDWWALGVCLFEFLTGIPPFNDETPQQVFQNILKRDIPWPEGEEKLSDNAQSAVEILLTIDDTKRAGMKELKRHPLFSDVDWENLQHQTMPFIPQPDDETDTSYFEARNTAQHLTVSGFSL

[4] = molecular target: T4, panel of 374 wild-type kinases (Homo sapiens, UniProt Q9NQU5); conditions: read-out: % Enzyme Activity (relative to DMSO controls), kinase PAK6
T4 construct: purchased Reaction Biology Corporation

[5] = molecular target: T5, panel of 374 wild-type kinases (Homo sapiens, UniProt Q16620); conditions: read-out: % Enzyme Activity (relative to DMSO controls), kinase TRKB
T5 construct: purchased Reaction Biology Corporation
T5 sequence (Q16620 32-822): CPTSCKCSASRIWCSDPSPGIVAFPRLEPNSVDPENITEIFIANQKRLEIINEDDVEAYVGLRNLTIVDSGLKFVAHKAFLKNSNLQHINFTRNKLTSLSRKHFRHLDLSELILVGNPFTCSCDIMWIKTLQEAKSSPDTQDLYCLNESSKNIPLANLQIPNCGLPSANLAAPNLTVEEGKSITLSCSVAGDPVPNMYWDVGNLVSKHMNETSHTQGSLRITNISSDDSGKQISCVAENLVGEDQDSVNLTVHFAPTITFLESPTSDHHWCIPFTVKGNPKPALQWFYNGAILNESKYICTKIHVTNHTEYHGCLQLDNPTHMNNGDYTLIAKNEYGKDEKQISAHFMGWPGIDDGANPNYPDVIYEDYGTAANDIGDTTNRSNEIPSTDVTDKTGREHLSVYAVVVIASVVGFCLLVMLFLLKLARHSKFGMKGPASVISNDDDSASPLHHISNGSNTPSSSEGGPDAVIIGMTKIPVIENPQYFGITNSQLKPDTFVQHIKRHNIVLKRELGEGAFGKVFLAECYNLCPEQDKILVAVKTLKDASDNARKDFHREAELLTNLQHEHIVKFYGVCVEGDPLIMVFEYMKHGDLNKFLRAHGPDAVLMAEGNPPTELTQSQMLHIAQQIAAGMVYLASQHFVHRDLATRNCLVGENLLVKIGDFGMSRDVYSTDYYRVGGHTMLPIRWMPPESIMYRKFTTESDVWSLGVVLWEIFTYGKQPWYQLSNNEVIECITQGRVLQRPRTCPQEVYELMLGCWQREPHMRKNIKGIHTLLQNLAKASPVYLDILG

T4 sequence (Q9NQU5 whole entry): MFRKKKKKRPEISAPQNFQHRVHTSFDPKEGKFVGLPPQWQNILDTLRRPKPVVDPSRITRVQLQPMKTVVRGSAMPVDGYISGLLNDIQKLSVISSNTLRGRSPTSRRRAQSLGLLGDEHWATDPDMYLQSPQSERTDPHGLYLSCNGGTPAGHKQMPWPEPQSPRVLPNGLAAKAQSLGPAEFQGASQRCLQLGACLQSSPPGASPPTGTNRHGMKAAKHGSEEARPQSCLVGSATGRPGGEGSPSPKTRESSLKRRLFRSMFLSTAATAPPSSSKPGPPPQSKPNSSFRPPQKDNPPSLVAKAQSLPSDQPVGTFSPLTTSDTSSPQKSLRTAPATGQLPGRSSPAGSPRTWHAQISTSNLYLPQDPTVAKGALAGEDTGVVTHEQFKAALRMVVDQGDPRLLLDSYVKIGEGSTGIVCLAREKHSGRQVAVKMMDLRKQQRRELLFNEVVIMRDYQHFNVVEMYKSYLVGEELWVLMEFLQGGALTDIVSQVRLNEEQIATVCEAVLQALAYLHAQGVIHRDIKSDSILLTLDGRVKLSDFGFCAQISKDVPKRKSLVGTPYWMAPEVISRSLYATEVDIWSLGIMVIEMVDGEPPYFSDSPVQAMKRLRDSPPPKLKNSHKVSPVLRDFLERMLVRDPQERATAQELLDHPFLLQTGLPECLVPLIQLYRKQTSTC
T2 sequence (Q9HCP0 whole entry): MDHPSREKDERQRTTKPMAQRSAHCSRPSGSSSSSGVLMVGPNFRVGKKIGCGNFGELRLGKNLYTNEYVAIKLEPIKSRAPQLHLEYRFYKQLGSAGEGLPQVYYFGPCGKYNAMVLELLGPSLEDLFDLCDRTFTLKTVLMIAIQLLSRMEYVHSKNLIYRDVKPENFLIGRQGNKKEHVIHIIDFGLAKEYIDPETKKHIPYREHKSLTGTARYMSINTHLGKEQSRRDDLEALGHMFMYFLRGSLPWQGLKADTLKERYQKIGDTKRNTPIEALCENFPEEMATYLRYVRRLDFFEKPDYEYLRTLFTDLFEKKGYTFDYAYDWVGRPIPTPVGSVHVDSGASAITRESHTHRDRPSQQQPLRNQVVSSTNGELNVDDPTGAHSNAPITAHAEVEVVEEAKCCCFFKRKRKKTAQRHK

Row | SMILES | remaining activity at 5 µM [1] | remaining activity at 5 µM [2] | remaining activity at 5 µM [3] | remaining activity at 5 µM [4] | remaining activity at 5 µM [5] | remaining activity at 10 µM ([1]; 10 uM) | remaining activity at 10 µM ([2]; 10 uM) | remaining activity at 10 µM ([3]; 10 uM) | remaining activity at 10 µM ([4]; 10 uM) | remaining activity at 10 µM ([5]; 10 uM)
1 | O=C(Nc1cnn(-c2csc(C(=O)NC3COC3)c2)c1)Nc1ccccc1Cl [Compound 17, 4-(4-(3-(2-chlorophenyl)ureido)-1H-pyrazol-1-yl)-N-(oxetan-3-yl)thiophene-2-carboxamide] | 92.7% | 99% | 96.7% | 131% | 84.2% | – | – | – | – | –
2 | O=C(Nc1cnn(-c2csc(C(=O)NC3COC3)c2)c1)Nc1c(F)cccc1Cl [Compound 25, 4-(4-(3-(2-chloro-6-fluorophenyl)ureido)-1H-pyrazol-1-yl)-N-(oxetan-3-yl)thiophene-2-carboxamide] | 77.1% | 102% | 93.7% | 92.9% | 91.5% | – | – | – | – | –
3 | Cc1sc(C(=O)NC2COC2)cc1-n1cc(NC(=O)Nc2c(F)cccc2Cl)cn1 [Compound 27, 4-(4-(3-(2-chloro-6-fluorophenyl)ureido)-1H-pyrazol-1-yl)-5-methyl-N-(oxetan-3-yl)thiophene-2-carboxamide] | – | – | – | – | – | 103% | 101% | 110% | 99.9% | 92.4%

Reference: US20240246942A1, “KINASE INHIBITORS FOR THE TREATMENT OF NEURODEGENERATIVE DISEASES” (priority 2020, published 2024)
